Experimental data taken from PubChem BioAssay (NCI).
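Assay format: 96-well plates, 48-hour exposure. The concentration for 50% growth inhibition is given as GI50. TGI denotes the concentration required for complete inhibition of growth.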

How the values were obtained:
Assay in all cases: NCI anticancer screen, dose series, 48 h
[1] = tested on: OVCAR-8 ovarian
[2] = tested on: OVCAR-5 ovarian
[3] = tested on: NCI/ADR-RES ovarian
[4] = tested on: MCF7 breast
[5] = tested on: SR leukemia
[6] = tested on: SK-MEL-28 melanoma
[7] = tested on: A549 NSCLC
[8] = tested on: NCI-H226 lung
[9] = tested on: UACC-257 melanoma
[10] = tested on: M14 melanoma
[11] = tested on: PC-3 prostate
[12] = tested on: NCI-H460 lung
[13] = tested on: RPMI-8226 leukemia
[14] = tested on: SNB-19 CNS
[15] = tested on: HL-60(TB) leukemia
[16] = tested on: SF-295 CNS
[17] = tested on: HCT-15 colon
[18] = tested on: 786-0 renal
[19] = tested on: HT29 colon
[20] = tested on: HOP-62 NSCLC
[21] = tested on: MDA-MB-231 breast
[22] = tested on: OVCAR-4 ovarian
[23] = tested on: EKVX NSCLC
[24] = tested on: KM12 colon
[25] = tested on: MDA-MB-435
[26] = tested on: T-47D breast
[27] = tested on: UO-31 renal
[28] = tested on: K-562 leukemia
[29] = tested on: COLO 205 colon
[30] = tested on: LOX IMVI melanoma
[31] = tested on: OVCAR-3 ovarian
[32] = tested on: CCRF-CEM leukemia
[33] = tested on: SK-MEL-2 melanoma
[34] = tested on: MALME-3M melanoma
[35] = tested on: NCI-H522 lung
[36] = tested on: HCC-2998 colon
[37] = tested on: MOLT-4 leukemia
[38] = tested on: SNB-75 CNS
[39] = tested on: BT-549 breast
[40] = tested on: HS 578T breast
[41] = tested on: TK-10 renal
[42] = tested on: SF-539 CNS
[43] = tested on: SN12C renal
[44] = tested on: SW-620 colon
[45] = tested on: U251 CNS
[46] = tested on: A498 renal
[47] = tested on: ACHN renal
[48] = tested on: HCT-116 colon
[49] = tested on: DU-145 prostate
[50] = tested on: SF-268 CNS
[51] = tested on: NCI-H23 lung
[52] = tested on: UACC-62 melanoma
[53] = tested on: SK-MEL-5 melanoma
[54] = tested on: CAKI-1 renal
[55] = tested on: HOP-92 NSCLC
[56] = tested on: IGROV1 ovarian
[57] = tested on: RXF 393 renal
[58] = tested on: SK-OV-3 ovarian

Cc1nc(N)c(N2CCN(S(N)(=O)=O)CC2)c(=O)[nH]1
TGI [1]: > 100 µM
TGI [2]: > 100 µM
TGI [3]: > 100 µM
TGI [4]: > 100 µM
TGI [5]: > 100 µM
TGI [6]: > 100 µM
TGI [7]: > 100 µM
TGI [8]: > 100 µM
TGI [9]: > 100 µM
TGI [10]: > 100 µM
TGI [11]: > 100 µM
TGI [12]: > 100 µM
TGI [13]: > 100 µM
TGI [14]: > 100 µM
TGI [15]: > 100 µM
TGI [16]: > 100 µM
TGI [17]: > 100 µM
TGI [18]: > 100 µM
TGI [19]: > 100 µM
TGI [20]: > 100 µM
TGI [21]: > 100 µM
TGI [22]: > 100 µM
TGI [23]: > 100 µM
TGI [24]: > 100 µM
TGI [25]: > 100 µM
TGI [26]: > 100 µM
TGI [27]: > 100 µM
TGI [28]: > 100 µM
TGI [29]: > 100 µM
TGI [30]: > 100 µM
TGI [31]: > 100 µM
TGI [32]: > 100 µM
TGI [33]: > 100 µM
TGI [34]: > 100 µM
TGI [35]: > 100 µM
TGI [36]: > 100 µM
TGI [37]: > 100 µM
TGI [38]: > 100 µM
TGI [39]: > 100 µM
TGI [40]: > 100 µM
TGI [41]: > 100 µM
TGI [42]: > 100 µM
TGI [43]: > 100 µM
TGI [44]: > 100 µM
TGI [45]: > 100 µM
TGI [46]: > 100 µM
TGI [47]: > 100 µM
TGI [48]: > 100 µM
TGI [49]: > 100 µM
TGI [50]: > 100 µM
TGI [51]: > 100 µM

COc1ccc(NC(=S)Nc2cc(C)ccn2)cc1
TGI [1]: > 100 µM
TGI [52]: > 100 µM
TGI [53]: > 100 µM
TGI [3]: > 100 µM
TGI [4]: > 100 µM
TGI [5]: > 100 µM
TGI [6]: > 100 µM
TGI [8]: > 100 µM
TGI [9]: > 100 µM
TGI [11]: > 100 µM
TGI [12]: > 100 µM
TGI [13]: > 100 µM
TGI [14]: > 100 µM
TGI [15]: > 100 µM
TGI [17]: > 100 µM
TGI [18]: > 100 µM
TGI [54]: > 100 µM
TGI [19]: > 100 µM
TGI [20]: > 100 µM
TGI [21]: > 100 µM
TGI [22]: > 100 µM
TGI [23]: > 100 µM
TGI [24]: > 100 µM
TGI [25]: > 100 µM
TGI [26]: > 100 µM
TGI [27]: > 100 µM
TGI [28]: > 100 µM
TGI [55]: > 100 µM
TGI [29]: > 100 µM
TGI [30]: > 100 µM
TGI [32]: > 100 µM
TGI [33]: > 100 µM
TGI [56]: > 100 µM
TGI [36]: > 100 µM
TGI [37]: > 100 µM
TGI [57]: > 100 µM
TGI [38]: > 100 µM
TGI [39]: > 100 µM
TGI [40]: > 100 µM
TGI [41]: > 100 µM
TGI [42]: > 100 µM
TGI [44]: > 100 µM
TGI [45]: > 100 µM
TGI [46]: > 100 µM
TGI [47]: > 100 µM
TGI [48]: > 100 µM
TGI [49]: > 100 µM
TGI [50]: > 100 µM
TGI [51]: > 100 µM

Cc1cn2c(/C=C3/C(=O)N(C)c4ccccc43)c(C)nc2s1
GI50 [1]: 29.2 µM
TGI [1]: > 100 µM
GI50 [2]: 28.6 µM
TGI [2]: > 100 µM
GI50 [52]: 12.2 µM
TGI [52]: 97.9 µM
GI50 [53]: 4.71 µM
TGI [53]: 25.5 µM
GI50 [3]: 3.4 µM
TGI [3]: 41 µM
GI50 [4]: 1.02 µM
TGI [4]: 13.3 µM
GI50 [5]: 2.48 µM
TGI [5]: 7.37 µM
GI50 [6]: 14.2 µM
TGI [6]: 53.4 µM
GI50 [7]: 12.8 µM
TGI [7]: > 100 µM
GI50 [8]: 40.5 µM
TGI [8]: > 100 µM
GI50 [9]: 67.8 µM
TGI [9]: > 100 µM
GI50 [10]: 5.31 µM
TGI [10]: > 100 µM
GI50 [11]: 16.5 µM
TGI [11]: > 100 µM
GI50 [12]: 4.06 µM
TGI [12]: 29.6 µM
GI50 [13]: 17 µM
TGI [13]: > 100 µM
GI50 [14]: 5.51 µM
TGI [14]: 27.7 µM
GI50 [15]: 2.42 µM
TGI [15]: 6.19 µM
GI50 [17]: 5.25 µM
TGI [17]: > 100 µM
GI50 [18]: 20.1 µM
TGI [18]: > 100 µM
GI50 [19]: 3.58 µM
TGI [19]: > 100 µM
GI50 [20]: 30 µM
TGI [20]: > 100 µM
GI50 [21]: 18.1 µM
TGI [21]: > 100 µM
GI50 [22]: 21.9 µM
TGI [22]: > 100 µM
GI50 [23]: 15.8 µM
TGI [23]: > 100 µM
GI50 [24]: 3.38 µM
TGI [24]: > 100 µM
GI50 [26]: 4.49 µM
TGI [26]: > 100 µM
GI50 [27]: 17.2 µM
TGI [27]: > 100 µM
GI50 [28]: 2.23 µM
TGI [28]: 7.15 µM
GI50 [55]: 31.9 µM
TGI [55]: > 100 µM
GI50 [29]: 3.93 µM
TGI [29]: 21 µM
GI50 [30]: 11.6 µM
TGI [30]: > 100 µM
GI50 [58]: 6.87 µM
TGI [58]: 31.9 µM
GI50 [32]: 14.5 µM
TGI [32]: > 100 µM
GI50 [33]: 5.33 µM
TGI [33]: 58.3 µM
GI50 [34]: 54.3 µM
TGI [34]: > 100 µM
GI50 [35]: 5.04 µM
TGI [35]: 30.2 µM
GI50 [56]: 6.98 µM
TGI [56]: 70.3 µM
GI50 [36]: 7.97 µM
TGI [36]: 33.5 µM
GI50 [37]: 4.84 µM
TGI [37]: 26.8 µM
GI50 [57]: 53.8 µM
TGI [57]: > 100 µM
GI50 [38]: 4.69 µM
TGI [38]: 23.4 µM
GI50 [39]: 10.8 µM
TGI [39]: > 100 µM
GI50 [40]: 9.59 µM
TGI [40]: 50.4 µM
GI50 [41]: 21.5 µM
TGI [41]: > 100 µM
GI50 [42]: 10.7 µM
TGI [42]: 52.9 µM
GI50 [43]: 25.5 µM
TGI [43]: > 100 µM
GI50 [44]: 4.3 µM
TGI [44]: > 100 µM
GI50 [45]: 8.08 µM
TGI [45]: > 100 µM
GI50 [46]: 11.9 µM
TGI [46]: 79.5 µM
GI50 [47]: 25.9 µM
TGI [47]: > 100 µM
GI50 [48]: 5.02 µM
TGI [48]: > 100 µM
GI50 [49]: 27.4 µM
TGI [49]: > 100 µM
GI50 [50]: 22.1 µM
TGI [50]: > 100 µM
GI50 [51]: 16.2 µM
TGI [51]: > 100 µM
